Assays:
P. falciparum = assay: Anti-Plasmodium activity: viability of P. falciparum cultures (pLDH enzyme assay); format: cell-based; conditions: strain line ItG, 72 hr incubation, pLDH assay, mean of four determinations ± standard error, read-out: IC50 (μM) P. falciparum
Method: P. falciparum cultures were grown in O+ blood obtained by venipuncture of volunteers. Cultures of the laboratory line ItG were maintained by the method of Trager and Jensen (Trager, W.; Jensen, J. Science 1976, 193, 673) using RPM, 1640 supplemented with 10% human serum (a kind gift obtained under ethical consent from the Chemo Day Care department of the Princess Margaret Hospital, Toronto, Canada) and 50 μM hypoxanthine (RPMI-A). The effects of the test compounds on the viability of P. falciparum cultures were determined using a Lactate Dehydrogenase (LDH) enzyme assay specific to the enzyme found in Plasmodium falciparum (pLDH) (Prudhomme, J. G.; Sherman, I. W. J Immunol Methods 1999, 229(1-2), 169; Makler, M. T.; Ries, J. M.; Williams, J. A.; Bancroft, J. E.; Piper, R. C.; Gibbins, B. L.; Hinrichs, D. J. Am J Trop Med Hyg 1993, 48(6), 739). Briefly, compounds to be tested were dissolved in DMSO afford a solution having a concentration of 10 mg/mL. Two-fold serial dilutions were then produced in 50 μL of RPMI-A in a 96 well plate and then 50 μL of parasite culture (2% hematocrit, 2% parasitemia) were added to each well and the plates were then incubated at 37° C. in 95% N2, 3% CO2, and 2% O2 for 72 hr. The contents of the wells were then re-suspended using a multi-channel pipettor and a 15 μL sample was removed from each well and was added to 100 μL of pLDH enzyme assay mixture (Prudhomme, J. G.; Sherman, I. W. J Immunol Methods 1999, 229(1-2), 169). After 1 hr the absorbance of the wells at 650 nm was determined using a ThermoMax microplate reader (Molecular Devices, Sunnyvale, Calif.). The IC50 values of individual compounds were determined using a non-linear regression analysis of the data^19 using the computer program SigmaPlot (Jandel Scientific) and are reported in Table 1. The IC50 values represent the mean±standard error calculated from four independent determinations. To verify if the poor viability of the cultures was related to inhibited merozoite invasion, samples were taken from treated wells and the presence of extracellular merozoites was confirmed by microscopy.

P. berghei parasites = assay: In vivo evaluation: parasitemia in mice infected with P. berghei; parameters: species or system P. berghei in female Balb/C mice
Method: (§1) Groups of 5 female Balb/C mice were infected with 10^6 P. berghei parasites i.p. and the parasitemia was estimated daily by examining a Giemsa-stained blood film. Once parasites were observed mice were infused once daily with saline alone (control groups) or with 18 ug/day of QT72, 18 ug/day of QT69, 0.24 ug/day of QT98, 60 ug/day of QT109, 9 ug/day of QT119, 7.5 ug/day of QT124 or 450 ug/day of chloroquine (CQ) for three days, as indicated by the arrows in FIG. 1. Average parasitemias are shown in FIG. 1 with standard error of the mean for each experimental group indicated by bars. The separate graphs in FIG. 1 indicate the results of two separate experiments.

CHO cells = assay: Viability of CHO cells (MTT); format: cell-based; conditions: Cricetulus griseus; CHO cells; 48 hrs; MTT; mean of four determinations ± standard error; read-out: IC50 (μM) CHO cells
Method: CHO cells (ATCC, Manassas, Va.) were grown in RPMI-1640 supplemented with 10% fetal calf serum (Sigma, St. Louis, Mo.), 25 mM HEPES and gentimicin (RPMI-10). Cells were seeded in 96 well plates and grown to 50% confluency in 100 μL of RPMI-10 per well prior to the addition of either DMSO alone, or a 10 mg/mL solution of a test compound of the disclosure in DMSO. Compound gradients were prepared by adding 90 μL of RPMI-10 mixed with 10 μL of compound solution to the first well in the series, mixing, transferring 100 μL to the next well, and repeating until the next-to-last well was reached. After 48 hrs, the viability of the cells was determined by discarding the media in the wells and adding 100 μL of 10 mg/mL of 3-[4,5-dimethylthiazol-2-yl]-2,5-diphenyltetrazolium bromide (MTT, Sigma, St. Louis, Mo.) in RPMI-10, incubating the plates for a further hour, and then removing the media and adding 100 μL of DMSO and reading the absorbance at 650 nm (Campling, B. G.; Pym, J.; Galbraith, P. R.; Cole, S. P. Leuk Res 1988, 12(10), 823). The IC50 values of individual compounds were determined using a non-linear regression analysis of the dose-response curve using the computer program SigmaPlot (Jandel Scientific) and are reported in Table 1.

[1] = parameters: species or system mice; conditions: mouse, in vivo
Method: as §1

[2] = test system: P. falciparum ItG cultures; assay: Effect on synchronized ItG P. falciparum cultures (Giemsa stained blood films); format: cell-based; conditions: 20 uM; cultures synchronized at mature stage; 24 hrs incubation
Method: The culture was allowed to incubate for 24 hrs before samples were withdrawn and used to produce Giemsa stained blood films.

| SMILES | IC50 (P. falciparum) | parasitemia vs saline control (P. berghei parasites; 9 ug/day infused once daily for three days, second experiment, day 14 (P<0.10), day 15 (P<0.03)) | IC50 (CHO cells) | adverse effects on the health of the mice [1] | parasitemia vs saline control (P. berghei parasites; 18 ug/day infused once daily for three days, day 6 (P<0.10), day 7 (P<0.01), day 8 (P<0.01)) | parasite forms in Giemsa stained blood films [2] | parasitemia vs saline control (P. berghei parasites; 450 ug/day infused once daily for three days, second experiment, all days following day 6 (P<0.02)) | parasitemia vs saline control (P. berghei parasites; 0.24 ug/day infused once daily for three days, day 7 (P<0.05)) |
| --- | --- | --- | --- | --- | --- | --- | --- | --- |
| CCC[n+]1ccn(CCCCCCCCCCCCn2cc[n+](CCC)c2)c1 [QT119, 1,12-Bis(3-propylimidazolium-1-yl)dodecane diiodide] | 0.0008 ± 0.0001 µM | significantly lower | 78 ± 14 µM | no adverse effects on the health of the mice were observed | – | – | – | – |
| C[n+]1cnn(CCCCCCCCCCCCn2c[n+](C)cn2)c1 [QT124, 1,12-Bis(4-methyl-1H-1,2,4-triazolium-1-yl)dodecane diiodide] | 0.00016 ± 5e-05 µM | – | 52 ± 9 µM | no adverse effects on the health of the mice were observed | – | – | – | – |
| CCN(CC)CCCC(C)Nc1ccnc2cc(Cl)ccc12 (stereo not drawn) [chloroquine, reference compound] | – | – | – | – | – | – | significantly lower | – |

The next lines start with results.

| IC50 (P. falciparum) | SMILES | parasitemia vs saline control (P. berghei parasites; 9 ug/day infused once daily for three days, second experiment, day 14 (P<0.10), day 15 (P<0.03)) | IC50 (CHO cells) | adverse effects on the health of the mice [1] | parasitemia vs saline control (P. berghei parasites; 18 ug/day infused once daily for three days, day 6 (P<0.10), day 7 (P<0.01), day 8 (P<0.01)) | parasite forms in Giemsa stained blood films [2] | parasitemia vs saline control (P. berghei parasites; 450 ug/day infused once daily for three days, second experiment, all days following day 6 (P<0.02)) | parasitemia vs saline control (P. berghei parasites; 0.24 ug/day infused once daily for three days, day 7 (P<0.05)) |
| --- | --- | --- | --- | --- | --- | --- | --- | --- |
| 0.9 ± 0.2 µM | c1ccc(Cn2cc[n+](Cc3ccc4ccccc4c3)c2)cc1 [QT69, 1-Benzyl-3-(naphthalen-2-yl-methyl)imidazolium bromide] | – | 108 ± 6 µM | – | significantly lower | parasite forms were seen associated with the outside of the red cells | – | – |
| 0.009 ± 0.001 µM | C[n+]1ccn(-c2ccc(-c3ccc(-n4cc[n+](C)c4)cc3)cc2)c1 [QT98, 4,4′-Bis-(3-methyl-1H-imidazolium-1-yl)biphenyl diiodide] | – | 9 ± 2 µM | – | – | – | – | significantly lower |
| 0.007 ± 0.003 µM | C[n+]1ccn(CCCCCCCCCCCCCn2cc[n+](C)c2)c1 [QT109, 1,13-Bis-(3-methylimidazolium-1-yl)tridecane diiodide] | – | 51 ± 11 µM | no adverse effects on the health of the mice were observed | – | – | – | – |

— patent publication US8632914B2, “Triazolium and imidazolium salts and uses thereof” (University Health Network, priority 2008, dated 2014)
